Data published in US11059780B2, “Substituted pyrrolidine compound and use thereof” (Takeda Pharmaceutical Company Limited, priority 2017, dated 2021).

These molecules were tested against T1, human orexin type 2 receptor (hOX2R) (Homo sapiens, UniProt O43614) (assay: Measurement of orexin type 2 receptor agonist activity (Fluo-4 calcium fluorescence, CHO cells forcibly expressing human OX2 receptor)). Conditions: test compound 3 μM, DMSO = 0%, orexin A (human) 10 nM = 100%.
T1 construct: expressed in transfected cells
T1 sequence (O43614 1-444): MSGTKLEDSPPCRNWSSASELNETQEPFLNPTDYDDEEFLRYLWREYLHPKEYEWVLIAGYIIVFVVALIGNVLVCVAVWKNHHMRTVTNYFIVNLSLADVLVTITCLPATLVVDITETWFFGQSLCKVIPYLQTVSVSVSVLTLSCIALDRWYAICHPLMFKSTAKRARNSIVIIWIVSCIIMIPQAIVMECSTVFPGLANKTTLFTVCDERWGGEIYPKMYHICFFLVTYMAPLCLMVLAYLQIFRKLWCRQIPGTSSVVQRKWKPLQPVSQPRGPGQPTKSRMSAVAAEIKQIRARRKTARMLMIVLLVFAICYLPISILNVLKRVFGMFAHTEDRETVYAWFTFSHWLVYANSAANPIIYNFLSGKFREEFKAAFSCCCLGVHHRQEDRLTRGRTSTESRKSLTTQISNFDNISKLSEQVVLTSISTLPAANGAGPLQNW
Type: cell-based
In short: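 CHO-dhfr cells stably expressing human OX2 receptor, loaded with Fluo-4 AM in HBSS/HEPES/BSA with probenecid, then given test compound at 3 μM. Calcium fluorescence recorded for about 2 min 40 s by FDSS; activity normalized to DMSO (0%) and 10 nM human orexin A (100%).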

Going from `CCc1cccc(C)c1C(=O)N1C[C@@H](OC)[C@H](Oc2cccc(C(F)(F)S(=O)(=O)N(C)C3CCOCC3)c2)C1` (relative stereo) [Example 150, trans-1-(3-((1-(2-ethyl-6-methylbenzoyl)-4-methoxypyrrolidin-3-yl)oxy)phenyl)-1,1-difluoro-N-methyl-N-(tetrahydro-2H-pyran-4-yl)methanesulfonamide] to `CCc1cccc(C)c1C(=O)N1C[C@@H](OC)[C@H](Oc2cccc(C(F)S(=O)(=O)N(C)C3CCOCC3)c2)C1` (relative stereo) [Example 154, trans-1-(3-((1-(2-ethyl-6-methylbenzoyl)-4-methoxypyrrolidin-3-yl)oxy)phenyl)-1-fluoro-N-methyl-N-(tetrahydro-2H-pyran-4-yl)methanesulfonamide], the “OX2R agonist activity (3 μM, %)” value rises from 43% to 99%.

First: CO[C@@H]1CN(C(=O)c2ccccc2C2CC2)C[C@H]1Oc1cccc(CS(=O)(=O)N(C)C2CCOCC2)c1 (relative stereo) [Example 153, trans-1-(3-((1-(2-cyclopropylbenzoyl)-4-methoxypyrrolidin-3-yl)oxy)phenyl)-N-methyl-N-(tetrahydro-2H-pyran-4-yl)methanesulfonamide]
Second: CO[C@@H]1CN(C(=O)c2c(C)cccc2C2CC2)C[C@H]1Oc1cccc(CS(=O)(=O)N(C)C2CCOCC2)c1 (relative stereo) [Example 160, trans-1-(3-((1-(2-cyclopropyl-6-methylbenzoyl)-4-methoxypyrrolidin-3-yl)oxy)phenyl)-N-methyl-N-(tetrahydro-2H-pyran-4-yl)methanesulfonamide]
The “OX2R agonist activity (3 μM, %)” value of the first is lower: 105% for the first, 111% for the second.

Compared with `CCc1cccc(C)c1C(=O)N1C[C@@H](OC)[C@H](Oc2cccc(CS(=O)(=O)N(C)C3CCOCC3)c2)C1` (relative stereo) [Example 155, trans-1-(3-((-1-(2-ethyl-6-methylbenzoyl)-4-methoxypyrrolidin-3-yl)oxy)phenyl)-N-methyl-N-(tetrahydro-2H-pyran-4-yl)methanesulfonamide], `CCc1ccc(C)c(C(=O)N2C[C@@H](OC)[C@H](Oc3cccc(CS(=O)(=O)N(C)C4CCOCC4)c3)C2)c1OC` (relative stereo) [Example 164, trans-1-(3-((1-(3-ethyl-2-methoxy-6-methylbenzoyl)-4-methoxypyrrolidin-3-yl)oxy)phenyl)-N-methyl-N-(tetrahydro-2H-pyran-4-yl)methanesulfonamide] is lower in “OX2R agonist activity (3 μM, %)” value: 108% for the first, 86% for the second.

Compared with `CO[C@@H]1CN(C(=O)c2cc(C)ccc2C)C[C@H]1Oc1cccc(CS(=O)(=O)N(C)C2CCOC(C)(C)C2)c1` (relative stereo) [Example 156, trans-1-(3-((1-(2,5-dimethylbenzoyl)-4-methoxypyrrolidin-3-yl)oxy)phenyl)-N-(2,2-dimethyltetrahydro-2H-pyran-4-yl)-N-methylmethanesulfonamide], `COc1ccc(C)c(C)c1C(=O)N1C[C@@H](OC)[C@H](Oc2cccc(CS(=O)(=O)N(C)C3CCOCC3)c2)C1` (relative stereo) [Example 162, trans-1-(3-((4-methoxy-1-(6-methoxy-2,3-dimethylbenzoyl)pyrrolidin-3-yl)oxy)phenyl)-N-methyl-N-(tetrahydro-2H-pyran-4-yl)methanesulfonamide] is higher in “OX2R agonist activity (3 μM, %)” value: 92% for the first, 96% for the second.

First: COc1nccc(C)c1C(=O)N1C[C@@H](OC)[C@H](Oc2cccc(CS(=O)(=O)N(C)C3CCOCC3)c2)C1 (relative stereo) [Example 161, trans-1-(3-((4-methoxy-1-((2-methoxy-4-methylpyridin-3-yl)carbonyl)pyrrolidin-3-yl)oxy)phenyl)-N-methyl-N-(tetrahydro-2H-pyran-4-yl)methanesulfonamide]
Second: CO[C@@H]1CN(C(=O)c2c(C)cccc2C2CC2)C[C@H]1Oc1cccc(OS(=O)(=O)N(C)C2CCOCC2)c1 (relative stereo) [Example 163, trans-3-((1-(2-cyclopropyl-6-methylbenzoyl)-4-methoxypyrrolidin-3-yl)oxy)phenyl methyl(tetrahydro-2H-pyran-4-yl)sulfamate]
The “OX2R agonist activity (3 μM, %)” value of the first is higher: 102% for the first, 97% for the second.

First: CO[C@@H]1CN(C(=O)c2c(C)cccc2C2CC2)C[C@H]1Oc1cccc(NS(=O)(=O)N(C)C2CCOCC2)c1 (relative stereo) [Example 165, trans-N′-(3-((1-(2-cyclopropyl-6-methylbenzoyl)-4-methoxypyrrolidin-3-yl)oxy)phenyl)-N-methyl-N-(tetrahydro-2H-pyran-4-yl)sulfuric diamide]
Second: CO[C@@H]1CN(C(=O)c2c(C)cccc2C2CC2)C[C@H]1Oc1cccc(OS(=O)(=O)N2CCOCC2)c1 (relative stereo) [Example 166, trans-3-((1-(2-cyclopropyl-6-methylbenzoyl)-4-methoxypyrrolidin-3-yl)oxy)phenyl morpholine-4-sulfonate]
The “OX2R agonist activity (3 μM, %)” value of the first is higher: 108% for the first, 41% for the second.

First: Cc1ccc(C)c(C(=O)N2CC[C@H](Oc3cccc(CS(=O)(=O)N4CCCC4c4ccccn4)c3)C2)c1 (stereo partly drawn) [Example 25, (2,5-dimethylphenyl)((3S)-3-(3-(((2-(pyridin-2-yl)pyrrolidin-1-yl)sulfonyl)methyl)phenoxy)pyrrolidin-1-yl)methanone]
Second: CO[C@@H]1CN(C(=O)c2cc(C)ccc2C)C[C@H]1Oc1cccc(CS(=O)(=O)N2CCC[C@H]2c2ccccn2)c1 [Example 57, (2,5-dimethylphenyl)((3R,4R)-3-methoxy-4-(3-((((2S)-2-(pyridin-2-yl)pyrrolidin-1-yl)sulfonyl)methyl)phenoxy)pyrrolidin-1-yl)methanone]
The “OX2R agonist activity (3 μM, %)” value of the first is lower: 29% for the first, 55% for the second.

Compared with `CO[C@@H]1CN(C(=O)c2cc(C)ccc2C)C[C@H]1Oc1cccc(NS(=O)(=O)N2CCC23CCOC3)c1` (stereo partly drawn) [Example 30, N-(3-(((3R,4R)-1-(2,5-dimethylbenzoyl)-4-methoxypyrrolidin-3-yl)oxy)phenyl)-6-oxa-1-azaspiro[3.4]octane-1-sulfonamide], `CO[C@@H]1CN(C(=O)c2cc(C)ccc2C)C[C@H]1Oc1cccc(NS(=O)(=O)N2CC3CC3C2)c1` (stereo partly drawn) [Example 109, N-(3-(((3R,4R)-1-(2,5-dimethylbenzoyl)-4-methoxypyrrolidin-3-yl)oxy)phenyl)-3-azabicyclo[3.1.0]hexane-3-sulfonamide] is higher in “OX2R agonist activity (3 μM, %)” value: 68% for the first, 84% for the second.

Going from `COC1CN(C(=O)c2cc(C)ccc2C)CC1Oc1cccc(CS(=O)(=O)N2CCCC2c2ccccc2C)c1` (stereo not drawn) [Example 41, trans-(2,5-dimethylphenyl)(3-methoxy-4-(3-(((2-(2-methylphneyl)pyrrolidin-1-yl)sulfonyl)methyl)phenoxy)pyrrolidin-1-yl)methanone] to `CO[C@@H]1CN(C(=O)c2c(C)cccc2C)C[C@H]1Oc1cccc(NS(=O)(=O)N2CC3CC3C2)c1` (stereo partly drawn) [Example 120, N-(3-(((3R,4R)-1-(2,6-dimethylbenzoyl)-4-methoxypyrrolidin-3-yl)oxy)phenyl)-3-azabicyclo[3.1.0]hexane-3-sulfonamide], the “OX2R agonist activity (3 μM, %)” value rises from 75% to 107%.

With `COc1cccc(C)c1C(=O)N1C[C@@H](OC)[C@H](Oc2cccc(NS(=O)(=O)N3CC4CC4C3)c2)C1` (stereo partly drawn) [Example 121, N-(3-(((3R,4R)-4-methoxy-1-(2-methoxy-6-methylbenzoyl)pyrrolidin-3-yl)oxy)phenyl)-3-azabicyclo[3.1.0]hexane-3-sulfonamide] the “OX2R agonist activity (3 μM, %)” value was 114%.
